Structures can show the parent of a compound that is named as a salt.
Key:
[1] = target: T1, dopamine D2 receptor (Rattus norvegicus, UniProt P61169); assay: Dopamine D2 receptor affinity, 3H-quinpirole binding in homogenized rat striatal brain tissue
T1 construct: from tissue; host or cells: rat striatal brain tissue homogenate
Experimental: Affinity for the dopamine D2 receptor was established by a modification of the standard experimental test procedure of Seemen and Schaus, European Journal of Pharmacology 203: 105-109, 1991, wherein homogenized rat striatal brain tissue is incubated with ^3H-quinpirole and various concentrations of test compound, filtered and washed and counted in a Betaplate scintillation counter.

[2] = test system: mouse locomotor activity; assay: Reduction of mouse locomotor activity (functional antagonism of dopamine receptors in vivo); details: mice (male, CF-1), sc, horizontal activity counts 10 to 20 minutes after dosing
Experimental: The antipsychotic activity of the compounds of the invention was established by a determination of functional antagonism of dopamine receptors in vivo, specifically the compounds' ability to reduce mouse locomotor activity according to the method of Martin and Bendensky, J. Pharmacol. Exp. Therap. 229: 706-711, 1984, in which mice (male, CF-1, Charles River, 20-30 g) were injected with vehicle or various doses of each drug and locomotor activity was measured for 30 minutes using automated infrared activity monitors (Omnitech—8×8 inch open field) located in a darkened room. ED50's were calculated from the horizontal activity counts collected from 10 to 20 minutes after dosing using a nonlinear regression analysis with inverse prediction.

T1 sequence (P61169 whole entry): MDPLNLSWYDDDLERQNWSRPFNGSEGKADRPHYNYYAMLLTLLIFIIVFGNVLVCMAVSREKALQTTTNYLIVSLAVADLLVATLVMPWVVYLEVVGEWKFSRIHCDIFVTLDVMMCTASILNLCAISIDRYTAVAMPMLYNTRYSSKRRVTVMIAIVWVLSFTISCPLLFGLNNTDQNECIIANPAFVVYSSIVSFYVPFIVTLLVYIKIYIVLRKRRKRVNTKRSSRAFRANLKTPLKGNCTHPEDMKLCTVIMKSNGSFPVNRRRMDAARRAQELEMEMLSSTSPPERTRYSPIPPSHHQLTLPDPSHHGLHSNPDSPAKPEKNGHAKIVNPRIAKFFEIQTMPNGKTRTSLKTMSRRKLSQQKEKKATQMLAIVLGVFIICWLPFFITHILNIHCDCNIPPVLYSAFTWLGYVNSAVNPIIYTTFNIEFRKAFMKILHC

Question: Which melting point does the source give for `O=c1[nH]c2ccc3c(c2o1)OC(CN1CC=C(c2c[nH]c4ccccc24)CC1)CO3` (stereo not shown) here?
Answer: 202 °C

Question: Which melting point does the source give for `NCC1COc2ccc3[nH]c(=O)oc3c2O1` (stereo not shown) (as salt: HCl) [Example 1, 8-Aminomethyl-7,8-dihydro-3H-1,6,9-trioxa-3-aza-cyclopenta[a]naphthalen-2-one] here?
Answer: > 250 °C

Question: For `O=c1[nH]c2ccc3c(c2o1)OC(CNCc1ccccc1)CO3` (stereo not shown) (as salt: fumarate) (hydrate or solvate) [Example 2, 8-(Benzylamino-methyl)-7,8-dihydro-3H-1,6,9-trioxa-3-aza-cyclopenta[a]naphthalen-2-one], which melting point is on record?
Answer: 220 °C

Question: For `O=c1[nH]c2ccc3c(c2o1)OC(CNCCCCc1ccccc1)CO3` (stereo not shown) (as salt: fumarate) (hydrate or solvate) [Example 4, 8-[(4-Phenyl-butylamino)-methyl]-7,8-dihydro-3H-1,6,9-trioxa-3-aza-cyclopenta[a]naphthalen-2-one], which melting point is on record?
Answer: 215 to 218 °C

Question: Which IC50 [1] does the source give for `NCC1COc2ccc3[nH]c(=O)oc3c2O1` (stereo not shown) [Example 1, 8-Aminomethyl-7,8-dihydro-3H-1,6,9-trioxa-3-aza-cyclopenta[a]naphthalen-2-one] here?
Answer: 3.7 nM

Question: With `O=c1[nH]c2ccc3c(c2o1)OC(CNCc1ccccc1)CO3` (stereo not shown) [Example 2, 8-(Benzylamino-methyl)-7,8-dihydro-3H-1,6,9-trioxa-3-aza-cyclopenta[a]naphthalen-2-one] as the compound, how does the IC50 [1] read?
Answer: 0.16 nM

Question: Which IC50 [1] does the source give for `O=c1[nH]c2ccc3c(c2o1)OC(CN(Cc1ccccc1)Cc1ccccc1)CO3` (stereo not shown) [Example 3, 8-[(Dibenzylamino)-methyl]-7,8-dihydro-3H-1,6,9-trioxa-3-aza-cyclopenta[a]naphthalen-2-one] here?
Answer: 475 nM

Question: What about the ED50 [2] of the same compound?
Answer: ≥ 50 mg/kg

Question: What about the melting point of the same compound?
Answer: 210 °C

Question: For `O=c1[nH]c2ccc3c(c2o1)OC(CNCCCCc1ccccc1)CO3` (stereo not shown) [Example 4, 8-[(4-Phenyl-butylamino)-methyl]-7,8-dihydro-3H-1,6,9-trioxa-3-aza-cyclopenta[a]naphthalen-2-one], which IC50 [1] is on record?
Answer: 2 nM

From patent publication US6800648B2, “Antipsychotic aminomethyl derivatives of 7,8-dihydro-3H-1,6,9-trioxa-3-AZA-cyclopenta[a]naphthalen-2-one” (Wyeth, priority 2001, dated 2004)
